Patent US9884839B2, “Inhibitors of 17Beta-hydroxysteroid dehydrogenases type 1 and type 2” (ElexoPharm GmbH, priority 2014, dated 2018)
pIC50: −log10 of the molar value. “And” between values parts separate entries of the source, which are not always exact repeats. Equal entries are not always repeated. Where two headings read alike, the source gives them in different places.

Experiments:
mouse 17β-HSD1 = target: T1, mouse 17β-HSD1 (Mus musculus, UniProt P51656); test: Inhibition of mouse 17β-HSD1 (recombinant, HEK293 lysate); type: biochemical
T1 construct: made in house; host or cells: HEK293 cells, transient transfection; 1,000 g supernatant of the cell lysate
T1 sequence (P51656 1-344): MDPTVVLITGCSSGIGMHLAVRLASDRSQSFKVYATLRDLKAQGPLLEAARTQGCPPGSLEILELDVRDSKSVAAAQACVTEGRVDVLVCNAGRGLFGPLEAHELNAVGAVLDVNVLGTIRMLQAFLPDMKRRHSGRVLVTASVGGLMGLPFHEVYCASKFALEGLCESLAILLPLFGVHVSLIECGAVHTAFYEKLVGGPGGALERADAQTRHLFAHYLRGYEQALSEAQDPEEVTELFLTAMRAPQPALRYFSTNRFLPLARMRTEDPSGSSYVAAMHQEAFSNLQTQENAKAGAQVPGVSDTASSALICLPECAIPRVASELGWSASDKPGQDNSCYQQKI

mouse 17β-HSD2 = target: T2, mouse 17β-HSD2 (Mus musculus, UniProt P51658); test: Inhibition of mouse 17β-HSD2 (liver microsomal fraction); type: biochemical; details: for pIC50: read-out: IC50 m17β-HSD2
T2 construct: The pellet fractions containing the microsomal 17β-HSD2 were used for the determination of E1 formation; from tissue; host or cells: mouse liver, microsomal fraction
T2 sequence (P51658 1-381): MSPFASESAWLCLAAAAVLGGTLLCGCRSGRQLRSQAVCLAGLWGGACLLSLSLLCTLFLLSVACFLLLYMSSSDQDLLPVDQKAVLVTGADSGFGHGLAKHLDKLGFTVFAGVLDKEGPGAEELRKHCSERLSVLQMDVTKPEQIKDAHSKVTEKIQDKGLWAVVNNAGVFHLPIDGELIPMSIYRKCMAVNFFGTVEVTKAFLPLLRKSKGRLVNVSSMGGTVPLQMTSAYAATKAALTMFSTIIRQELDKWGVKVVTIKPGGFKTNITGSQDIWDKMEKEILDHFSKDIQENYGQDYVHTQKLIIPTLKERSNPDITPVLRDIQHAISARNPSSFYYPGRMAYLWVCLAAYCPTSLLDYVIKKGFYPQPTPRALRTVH

rat 17β-HSD2 = target: T3, rat 17β-HSD2 (Rattus norvegicus, UniProt Q62730); test: Inhibition of rat 17β-HSD2 (liver microsomal fraction); type: biochemical
T3 construct: The pellet fractions containing the microsomal 17β-HSD2 were used for the determination of E1 formation; from tissue; host or cells: rat liver, microsomal fraction
T3 sequence (Q62730 1-381): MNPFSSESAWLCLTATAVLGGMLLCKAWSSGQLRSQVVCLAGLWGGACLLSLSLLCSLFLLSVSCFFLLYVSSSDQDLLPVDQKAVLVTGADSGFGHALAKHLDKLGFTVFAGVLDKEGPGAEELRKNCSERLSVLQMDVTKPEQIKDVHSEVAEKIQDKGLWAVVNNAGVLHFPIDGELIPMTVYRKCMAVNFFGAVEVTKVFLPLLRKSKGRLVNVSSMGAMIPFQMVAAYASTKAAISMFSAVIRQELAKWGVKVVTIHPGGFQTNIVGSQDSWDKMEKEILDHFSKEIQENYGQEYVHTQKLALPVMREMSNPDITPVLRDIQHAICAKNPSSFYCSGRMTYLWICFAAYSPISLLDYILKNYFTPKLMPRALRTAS

human 17β-HSD1 = target: T4, human 17β-HSD1 (Homo sapiens, UniProt P14061); test: Inhibition of human 17β-HSD1 (conversion of [3H]-E1 to E2, HPLC radioflow detection); type: biochemical; details: for inhibition at 0.1 µM: read-out: % inhibition h17β-HSD1 @ 100 nM, compound 100 nM; for IC50: read-out: IC50 [nM] h17β-HSD1; for inhibition at 1 µM: read-out: % inhibition h17β-HSD1 @ 1 μM
T4 construct: For the partial purification of 17β-HSD1, the cytosolic fraction was precipitated with ammonium sulfate; from tissue; host or cells: human placenta, cytosolic fraction, ammonium sulfate precipitate
T4 sequence (P14061 1-328): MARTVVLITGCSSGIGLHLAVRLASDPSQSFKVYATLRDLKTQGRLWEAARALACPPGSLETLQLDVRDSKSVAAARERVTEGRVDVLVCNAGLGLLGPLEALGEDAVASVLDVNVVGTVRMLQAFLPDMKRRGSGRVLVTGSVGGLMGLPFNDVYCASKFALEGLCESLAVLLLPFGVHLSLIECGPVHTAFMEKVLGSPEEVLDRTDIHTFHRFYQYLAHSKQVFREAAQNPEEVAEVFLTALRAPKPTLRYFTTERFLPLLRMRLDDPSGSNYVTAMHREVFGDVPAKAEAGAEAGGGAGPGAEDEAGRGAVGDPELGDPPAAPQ

human 17β-HSD2 = target: T5, human 17β-HSD2 (Homo sapiens, UniProt P37059); test: Inhibition of human 17β-HSD2 (conversion of [3H]-E2 to E1); type: biochemical; details: for inhibition at 1 µM: read-out: % inhibition h17β-HSD2 @ 1 μM; for IC50: read-out: IC50 [nM] h17β-HSD2
T5 construct: 17β-HSD2 was obtained from the microsomal fraction; from tissue; host or cells: human placenta, microsomal fraction
T5 sequence (P37059 1-387): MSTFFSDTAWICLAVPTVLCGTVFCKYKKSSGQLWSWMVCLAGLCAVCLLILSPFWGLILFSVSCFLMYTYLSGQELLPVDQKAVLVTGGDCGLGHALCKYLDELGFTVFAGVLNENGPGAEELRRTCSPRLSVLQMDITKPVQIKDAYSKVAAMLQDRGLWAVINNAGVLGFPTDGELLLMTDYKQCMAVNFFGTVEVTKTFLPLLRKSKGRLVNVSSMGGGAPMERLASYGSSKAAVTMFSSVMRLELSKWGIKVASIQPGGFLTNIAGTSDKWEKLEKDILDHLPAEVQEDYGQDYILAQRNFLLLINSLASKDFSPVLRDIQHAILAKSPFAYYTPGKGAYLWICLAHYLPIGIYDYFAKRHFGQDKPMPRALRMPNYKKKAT

rat 17β-HSD1 = target: T6, rat 17β-HSD1 (Rattus norvegicus, UniProt P51657); test: Inhibition of rat 17β-HSD1 (recombinant, HEK293 lysate); type: biochemical; details: for inhibition at […] / % Inhibition r17β-HSD1: Cmpd conc. 250 nM; for inhibition at 5 µM: Cmpd conc. 5000 nM
T6 construct: made in house; host or cells: HEK293 cells, transient transfection; 1,000 g supernatant of the cell lysate
T6 sequence (P51657 1-344): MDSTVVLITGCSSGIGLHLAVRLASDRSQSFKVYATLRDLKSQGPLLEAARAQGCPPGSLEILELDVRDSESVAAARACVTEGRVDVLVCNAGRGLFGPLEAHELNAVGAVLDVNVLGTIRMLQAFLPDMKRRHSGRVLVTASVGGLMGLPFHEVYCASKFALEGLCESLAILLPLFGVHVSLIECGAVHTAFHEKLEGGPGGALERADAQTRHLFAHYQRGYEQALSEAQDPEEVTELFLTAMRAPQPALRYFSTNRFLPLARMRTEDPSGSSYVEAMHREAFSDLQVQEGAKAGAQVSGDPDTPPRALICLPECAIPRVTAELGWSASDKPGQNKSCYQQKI

[1] = human liver S9, 1 mg/mL; unit not given
in vitro = details: human, pooled human liver S9 fraction
[2] = read-out: % inhibition m17β-HSD1 @ 1 μM
[3] = read-out: % inhibition m17β-HSD2 @ 1 μM
[4] = read-out: % Inhibition r17β-HSD2
[5] = read-out: % Inhibition r17β-HSD1
[6] = read-out: Inhibition @ 1 μM m17β-HSD1
[7] = read-out: Inhibition @ 1 μM m17β-HSD2
[8] = human placental cytosolic enzyme, E1 500 nM, NADH, Tables 1, 4-11

Compound	inhibition at 1 µM (mouse 17β-HSD1; [2]) [%]	inhibition at […] (rat 17β-HSD2; [4]) [%]	inhibition at […] (rat 17β-HSD1; [5]) [%]	inhibition at 1 µM (mouse 17β-HSD1; [6]) [%]	inhibition at 1 µM (mouse 17β-HSD2; [7]) [%]	IC50 (human 17β-HSD2) [nM]	other results
O=C(c1ccc(-c2ccc(F)cc2F)s1)c1cccc(O)c1F [C, reference compound]	18	20	35	–	–	–	inhibition at 1 µM (mouse 17β-HSD2; [3]): 75%; inhibition at 0.1 µM (human 17β-HSD1): 92%; inhibition at 0.1 µM (human 17β-HSD2; read-out: % inhibition h17β-HSD2 @ 100 nM): 87%
O=C(c1ccc(Br)s1)c1c(F)ccc(O)c1F [Compound 1e, (5-Bromo-thiophen-2-yl)-(2,6-difluoro-3-hydroxy-phenyl)-methanone]	5	60	5	–	–	–	inhibition at 1 µM (mouse 17β-HSD2; [3]): 80%; inhibition at 0.1 µM (human 17β-HSD1): 85%; inhibition at 0.1 µM (human 17β-HSD2; read-out: IC50 [nM] or % inhibition h17β-HSD1 (second column so headed, Table 9): % @ 100 nM): 71%
O=C(c1ccc(-c2ccc(F)cc2F)s1)c1c(F)ccc(O)c1F [Compound 10, (2,6-Difluoro-3-hydroxy-phenyl)-[5-(2,4-difluoro-phenyl)-thiophen-2-yl]-methan-one]	–	66	63	41	67	–	inhibition at 1 µM (mouse 17β-HSD1; Tables 4 and 6, no % sign and concentration not given, Table 1 lists these compounds as inhibition @ 1 μM, read-out: IC50 [nM] or % inhibition m17β-HSD1 (bare number, kind not marked)): 41%; IC50 (human 17β-HSD1; [8]): 3.5 nM
COc1ccc(-c2ccc(C(=O)c3c(F)ccc(O)c3F)s2)cc1S(=O)(=O)N1CCOCC1 [Compound 19, (2,6-Difluoro-3-hydroxy-phenyl)-{5-[4-methoxy-3-(morpholine-4-sulfonyl)-phen-yl]-thiophen-2-yl}-methanone]	–	–	26	58	44	–	% Inhibition r17β-HSD2 (rat 17β-HSD2): n.i.^c; inhibition at 1 µM (human 17β-HSD1): 79%; inhibition at 1 µM (human 17β-HSD2): 85%
O=C(c1ccc(-c2cccc(NS(=O)(=O)c3ccc(Br)cc3OC(F)(F)F)c2)s1)c1cc(F)c(F)c(O)c1F [Compound 36, 4-Bromo-N-{3-[5-(2,4,5-trifluoro-3-hydroxybenzoyl)thiophen-2-yl]phenyl}-2-trifluoromethoxybenzenesulfonamide]	68	100	50	68	–	–	pIC50 (human 17β-HSD1): 8.62
O=C(c1ccc(-c2cccc(NS(=O)(=O)c3ccccc3C(F)(F)F)c2)s1)c1cc(F)c(F)c(O)c1F [Compound 38, N-{3-[5-(2,4,5-Trifluoro-3-hydroxybenzoyl)thiophen-2-yl]phenyl}-2-trifluoromethylbenzenesulfonamide]	81	96	41	81	–	–	pIC50 (human 17β-HSD1): 8.32

Second part, led by results:

inhibition at 1 µM (mouse 17β-HSD1; [2]) [%]	inhibition at […] (rat 17β-HSD2; [4]) [%]	inhibition at […] (rat 17β-HSD1; [5]) [%]	inhibition at 1 µM (mouse 17β-HSD1; [6]) [%]	inhibition at 1 µM (mouse 17β-HSD2; [7]) [%]	IC50 (human 17β-HSD2) [nM]	Compound	other results
50	–	–	50	82	20	O=C(c1ccc(-c2ccc(O)c(Cl)c2)s1)c1c(F)ccc(O)c1F [Compound 20, [5-(3-Chloro-4-hydroxy-phenyl)-thiophen-2-yl]-(2,6-difluoro-3-hydroxy-phenyl)-methanone]	inhibition at 1 µM (mouse 17β-HSD2; [3]): 95%; inhibition at 0.5 µM (rat 17β-HSD2; [4]): 98%; IC50 (human 17β-HSD1; [8]): 0.5 nM; inhibition at 0.5 µM (rat 17β-HSD1; Cmpd conc. 500 nM, read-out: % Inhibition r17β-HSD1): 48%
–	–	–	23	–	39	O=C(c1ccc(-c2cc(Cl)c(O)c(Cl)c2)s1)c1c(F)ccc(O)c1F [Compound 23, [5-(3,5-Dichloro-4-hydroxy-phenyl)-thiophen-2-yl]-(2,6-difluoro-3-hydroxy-phen-yl)-methanone]	pIC50 (mouse 17β-HSD2): 6.68; CLint [1]: 5.4; half-life at 1 µM (in vitro): 2.16 h; IC50 (human 17β-HSD1): 2.4 nM; inhibition at 5 µM (rat 17β-HSD1; [5]): 59%
–	–	–	16	40	11	CC(=O)N1CCN(Cc2cc(-c3ccc(C(=O)c4c(F)ccc(O)c4F)s3)cc(Cl)c2O)CC1 [Compound 29, 1-(4-{3-Chloro-5-[5-(2,6-difluoro-3-hydroxy-benzoyl)-thiophen-2-yl]-2-hydroxy-benzyl}-piperazin-1-yl)-ethanone]	% Inhibition r17β-HSD2 (rat 17β-HSD2): n.i.^c; IC50 (human 17β-HSD1): 2.1 nM; % Inhibition r17β-HSD1 (rat 17β-HSD1): n.i.^c
–	66	–	–	–	–	O=C(c1ccc(-c2cc(Cl)c(O)c(Cn3ccnn3)c2)s1)c1c(F)ccc(O)c1F [Compound 32, [5-(3-Chloro-4-hydroxy-5-[1,2,3]triazol-1-ylmethyl-phenyl)-thiophen-2-yl]-(2,6-difluoro-3-hydroxy-phenyl)-methanone]	Inhibition @ 1 μM m17β-HSD1 (mouse 17β-HSD1; compound 1 μM, Table 1, bare numbers): n.i.^c; inhibition at 1 µM (human 17β-HSD1): 37%; inhibition at 1 µM (human 17β-HSD2): 30%; % Inhibition r17β-HSD1 (rat 17β-HSD1): n.i.^c
55	93	29	55	–	–	O=C(c1ccc(-c2cccc(NS(=O)(=O)c3ccccc3OC(F)(F)F)c2)s1)c1cc(F)c(F)c(O)c1F [Compound 37, N-{3-[5-(2,4,5-Trifluoro-3-hydroxybenzoyl)thiophen-2-yl]phenyl}-2-trifluoromethoxybenzenesulfonamide]	pIC50 (mouse 17β-HSD2): 7.10 and 7.66; IC50 (human 17β-HSD1; [8]): 5.8 nM
–	–	–	18	22	384	Cc1cc(-c2ccc(C(=O)c3cccc(O)c3)s2)ccc1O [Compound F1, reference compound]	CLint [1]: 193.8; half-life at 1 µM (in vitro): 0.06 h; IC50 (human 17β-HSD1): 8 nM; inhibition at 5 µM (rat 17β-HSD1; [5]): 48%
